The source of these data is patent publication US12035716B2, “Treatment for seeds disinfection” (VILMORIN & CIE, priority 2013, dated 2024).

Read-outs that look alike come from different tables or passages of the source.

The test system of one series is CGMMV. Particulars: Tri Sodium Phosphate 10%, negative control 0.13. The procedure:
In this case, cucumber seeds have been obtained from a commercial seed lot, naturally infected by CGMMV in the production field.
The seeds were disinfected by standard method and by vacuum infiltration method. In this case, vacuum is applied at maximal pressure of 975-985 mbar from the beginning. […] The vacuum cycles continue until floating seeds are no longer sinking. The floating seeds are then removed and discarded. This process takes 15-20 minutes.
In this case two chemicals were used.
We also tested the effect of different concentration of Na-Dichloroisocyanurate applied by vacuum infiltration on CGMMV and germination (table II) treatment E is untreated control; treatment F is vacuum infiltration of Na-Dichloroisocyanurate 0.75%; treatment G is vacuum infiltration of Na-Dichloroisocyanurate 1.5% and treatment H is vacuum infiltration of Na-Dich loroisocyanurate 2.0%.
CGMMV was tested by ELISA assay according to method 7-026 of the international rules for seed testing annex to chapter 7: seed health testing methods; International Seed Testing Association, Zurich, Switzerland, 2010.

In another series the test system is cucumber seeds. Particulars: Tri Sodium Phosphate 10%. The method, then: The germination test was performed according to Annex to chapter 5, International Rules for Seed Testing, International Seed Testing Association, Zurich, Switzerland, 1996.
A further series deals with Acidovorax citrulli. Particulars: cited from earlier work; for Eradication of seed borne Acidovorax citrulli inoculum: chemical seed treatment of infected seeds (Dutta et al. 2012).
The next series has as its system tomato seeds. Briefly: Germination and transplant tests of treated tomato seeds (AOSA, Example 8). It counts as in vivo. The following applies: 1% Ca(ClO)2; for UNIF (Uniform Transplants) / UT (Useable Transplants): trays in a greenhouse. The source says:
(§1) Tomato seeds have been obtained from commercial seed lot naturally infected by CMM in the production field. Vacuum treatment was done by vacuum infiltration (VI) method using 4 liters of 1% calcium hypochlorite, as described hereafter. The vacuum was applied while seeds were located in a perforated basket above the disinfectant solution in a closed chamber. A vacuum pressure was applied at maximal reachable vacuum pressure of about 975-985 mbar, followed by submerging the seeds into the solution and releasing the vacuum. Vacuum/de-vacuum cycles were repeated 4 times and at the end, all the seeds sunk. The seeds were collected, rinsed for 5 minutes and dried. Soaking treatment was done in the same solution for one hour after VI treatment or without VI treatment.
The germination tests have been done according to the Association of Official Seed Analysts (AOSA) (http://www.aosaseed.com/).

Series [1] relates to Clavibacter michiganensis subsp. michiganensis. Briefly: Disinfection of tomato seeds naturally infected by CMM; ISF detection method. The class given is in vivo. The following applies: 1% Ca(ClO)2.
Text: as §1
Clavibacter michiganensis subsp. michiganensis infection results were obtained by using the “method for the detection of Clavibacter michiganensis subsp. michiganensis on tomato seed” according to the International Seed Federation (ISF) Manual of Seed Health Methods, as can be found in the internet site: http://www.worldseed.org/isf/ishi_vegetable.html.

For `O=P([O-])([O-])[O-].[Na+].[Na+].[Na+]` [Tri Sodium Phosphate], the entries for the “ELISA assay result (rate of extinction at A405)” value in the series on CGMMV (standard disinfection) and in the series with CGMMV (vacuum infiltration) were 0.34 and 0.19, respectively. Besides, the Germination % in the series on cucumber seeds (standard disinfection) and in the series on cucumber seeds (vacuum infiltration) was 100% in each case.
In the case of `CC(=O)OO` [peroxyacetic acid], the “Eradication of seed borne Acidovorax citrulli inoculum” value (“Eradication” for short) with Acidovorax citrulli is “generally fail to eradicate the bacterium from the infected seeds”. Moreover, the BFB seedling transmission entry in the series with Acidovorax citrulli (seed treatment (Walcott 2005)) is recorded as “significantly reduce BFB seedling transmission”.
As to `OCl` [sodium hypochlorite], the “Eradication” value in the series on Acidovorax citrulli is “generally fail to eradicate the bacterium from the infected seeds”. In the series on Acidovorax citrulli (seed treatment (Walcott 2005)), the BFB seedling transmission result was “significantly reduce BFB seedling transmission”.
With `[Ca+2].[O-]Cl.[O-]Cl` [Ca(ClO)2, calcium hypochlorite], the “EN (Energy, early germination counts on Day 5)” value in the series on tomato seeds (1 hr soak alone) is 98; in the series on tomato seeds (VI alone), 96; in the series on tomato seeds (VI then 1 hr soak), 99. The entries for the “OG (Optimum Germination, counted on Day 14)” value in the series with tomato seeds (1 hr soak alone), in the series with tomato seeds (VI alone) and in the series on tomato seeds (VI then 1 hr soak) were 98, 96 and 99, respectively. Also, the “UNIF (Uniform Transplants)” value with tomato seeds (1 hr soak alone) is given as 92; in the series on tomato seeds (VI alone), 91; with tomato seeds (VI then 1 hr soak) it was 89. Besides, the figures for the “UT (Useable Transplants)” value with tomato seeds (1 hr soak alone), in the series with tomato seeds (VI alone) and in the series with tomato seeds (VI then 1 hr soak) were 95, 94 and 92, respectively. Besides, the values for the CMM infection results in series [1] (1 hr soak alone), in series [1] (VI alone) and in series [1] (VI then 1 hr soak) were “Positive”, “Negative” and “Negative”, respectively.
Regarding `Cl` [hydrochloric acid], in the series with Acidovorax citrulli, the “Eradication” value was “generally fail to eradicate the bacterium from the infected seeds”. Besides, in the series with Acidovorax citrulli (in vivo), the BFB seedling transmission entry was “significantly reduce BFB seedling transmission”.
